# pIC50: −log10 of the molar value.
# Biological target: T1, Jak3 enzyme (aa 811-1103) (Homo sapiens, UniProt P52333)
# T1 construct: Jak3 enzyme (aa 811-1103); expressed in SF9 cells as a GST fusion; GST; made in house; host or cells: SF9 insect cells
# Assay: In vitro Jak3 kinase activity measured by time-resolved fluorescence resonance energy transfer (trFRET)
# Assay type: biochemical
# Conditions: ATP 0.001 mM, Table B
# Method in brief: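 GST-tagged Jak3 (aa 811-1103, Sf9-expressed; 3 nM) with 2 μM biotin-peptide substrate and 1 μM ATP in MOPSO pH 6.5 with Mg2+/Mn2+, about 60 min at rt. EDTA-quenched; Eu anti-phosphotyrosine/streptavidin-APC trFRET read at 665 nm; IC50 from signal in linear range.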
# T1 sequence (P52333 811-1103): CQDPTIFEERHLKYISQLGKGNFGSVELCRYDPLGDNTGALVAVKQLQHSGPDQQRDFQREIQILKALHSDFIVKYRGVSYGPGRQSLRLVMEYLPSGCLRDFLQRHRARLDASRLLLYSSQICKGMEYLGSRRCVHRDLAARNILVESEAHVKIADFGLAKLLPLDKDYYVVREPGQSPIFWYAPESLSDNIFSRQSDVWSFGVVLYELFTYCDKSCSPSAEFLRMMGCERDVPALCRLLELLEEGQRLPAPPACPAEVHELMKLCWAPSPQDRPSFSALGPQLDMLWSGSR
row,Compound,pIC50
1,"CCc1cc(C(=O)N[C@H]2C[C@@H](CC)[C@@H](c3nnc4cnc5[nH]ccc5n34)C2)no1 [compound 76, 5-ethyl-N-((1S,3R,4S)-3-ethyl-4-(6H-pyrrolo[2,3-e][1,2,4]triazolo[4,3-a]pyrazin-1-yl)cyclopentyl)isoxazole-3-carboxamide]",5.00 to 6.00
2,"CC[C@@H]1C[C@H](NC(=O)CCC2CCCCC2)C[C@@H]1c1nnc2cnc3[nH]ccc3n12 [compound 77, 3-cyclohexyl-N-((1S,3R,4S)-3-ethyl-4-(6H-pyrrolo[2,3-e][1,2,4]triazolo[4,3-a]pyrazin-1-yl)cyclopentyl)propanamide]",5.00 to 6.00
3,"CC[C@@H]1C[C@H](NC(=O)c2ccco2)C[C@@H]1c1nnc2cnc3[nH]ccc3n12 [compound 78, N-((1S,3R,4S)-3-ethyl-4-(6H-pyrrolo[2,3-e][1,2,4]triazolo[4,3-a]pyrazin-1-yl)cyclopentyl)furan-2-carboxamide]",5.00 to 6.00
4,"CC[C@@H]1C[C@H](NC(=O)c2occc2C)C[C@@H]1c1nnc2cnc3[nH]ccc3n12 [compound 79, N-((1S,3R,4S)-3-ethyl-4-(6H-pyrrolo[2,3-e][1,2,4]triazolo[4,3-a]pyrazin-1-yl)cyclopentyl)-3-methylfuran-2-carboxamide]",5.00 to 6.00
5,"CC[C@@H]1C[C@H](NC(=O)CCC2CCC(=O)N2)C[C@@H]1c1nnc2cnc3[nH]ccc3n12 (stereo partly drawn) [compound 80, N-((1S,3R,4S)-3-ethyl-4-(6H-pyrrolo[2,3-e][1,2,4]triazolo[4,3-a]pyrazin-1-yl)cyclopentyl)-3-(5-oxopyrrolidin-2-yl)propanamide]",5.00 to 6.00
6,"CCc1cc(C(=O)N[C@H]2C[C@@H](CC)[C@@H](c3nnc4cnc5[nH]ccc5n34)C2)on1 [compound 81, 3-ethyl-N-((1S,3R,4S)-3-ethyl-4-(6H-pyrrolo[2,3-e][1,2,4]triazolo[4,3-a]pyrazin-1-yl)cyclopentyl)isoxazole-5-carboxamide]",5.00 to 6.00
7,"CC[C@@H]1C[C@H](NC(=O)c2cnco2)C[C@@H]1c1nnc2cnc3[nH]ccc3n12 [compound 82, N-((1S,3R,4S)-3-ethyl-4-(6H-pyrrolo[2,3-e][1,2,4]triazolo[4,3-a]pyrazin-1-yl)cyclopentyl)oxazole-5-carboxamide]",5.00 to 6.00

# Continued, values first:
row,pIC50,Compound
1,5.00 to 6.00,"CC[C@@H]1C[C@H](NC(=O)c2noc3c2CCCC3)C[C@@H]1c1nnc2cnc3[nH]ccc3n12 [compound 72, N-((1S,3R,4S)-3-ethyl-4-(6H-pyrrolo[2,3-e][1,2,4]triazolo[4,3-a]pyrazin-1-yl)cyclopentyl)-4,5,6,7-tetrahydrobenzo[d]isoxazole-3-carboxamide]"
2,> 6.00,"CC[C@@H]1C[C@H](NC(=O)c2cc(-c3ccco3)on2)C[C@@H]1c1nnc2cnc3[nH]ccc3n12 [compound 73, N-((1S,3R,4S)-3-ethyl-4-(6H-pyrrolo[2,3-e][1,2,4]triazolo[4,3-a]pyrazin-1-yl)cyclopentyl)-5-(furan-2-yl)isoxazole-3-carboxamide]"
3,5.00 to 6.00,"CCc1ocnc1C(=O)N[C@H]1C[C@@H](CC)[C@@H](c2nnc3cnc4[nH]ccc4n23)C1 [compound 74, 5-ethyl-N-((1S,3R,4S)-3-ethyl-4-(6H-pyrrolo[2,3-e][1,2,4]triazolo[4,3-a]pyrazin-1-yl)cyclopentyl)oxazole-4-carboxamide]"
4,5.00 to 6.00,"CC[C@@H]1C[C@H](NC(=O)CSc2nnc(C)o2)C[C@@H]1c1nnc2cnc3[nH]ccc3n12 [compound 75, N-((1S,3R,4S)-3-ethyl-4-(6H-pyrrolo[2,3-e][1,2,4]triazolo[4,3-a]pyrazin-1-yl)cyclopentyl)-2-(5-methyl-1,3,4-oxadiazol-2-ylthio)acetamide]"
